From PMC7865555, “Mechanistic Studies of the Antiallergic Activity of Phyllanthus amarus Schum. & Thonn. and Its Compounds” (Molecules, 2021)

system: not listed separately; assay: Cell viability (MTT) assay on RBL-2H3 cells; assay type: cell-based, rat; conditions: rat, RBL-2H3 cells; RBL-2H3, 2.5 µg/mL
Method: (§1) RBL-2H3 cells were obtained from the Japanese Collection of Research Bioresources (JCRB) cell bank with a cell number of JCRB0023. The cells were cultured in enriched media (MEM containing 10% FBS and 1% penicillin-streptomycin (10 000 U/mL)). Once the cells reaching passage 3 (P3) with 80% confluency and showing stable growth and morphology, the cells were used for the bioassays. Only cells from passage 3 (P3) to passage 5 (P5) were used for the bioassays’ studies.
(§2) The cell viability assay was conducted as reported by Shahari, et al.. RBL-2H3 cells were seeded in 96-well plates in 100 µL at the concentration of 5 × 10^5 /mL. […] The cells were incubated for 4 h. 10 µL of MTT (5 mg/mL in PBS buffer) was added to the mixture and was incubated for 4 h at 37 °C. Upon the appearance of purple formazan crystal, the media was removed and 100 µL of DMSO was added to the well plates to dissolve the crystal. After 10 min of shaking the well plates on a shaker, the absorbance was immediately measured using a microplate reader at 570 nm.

SMILES	viability at 4 h, 2.5 µg/mL [%]
O=C(O[C@@H]1O[C@@H]2COC(=O)c3cc(O)c(O)c(O)c3-c3c(cc(O)c(O)c3O)C(=O)O[C@H]([C@H]1O)[C@@H]2O)c1cc(O)c(O)c(O)c1 [Corilagin (4), corilagin]	87.1 ± 4.31
COC[C@@H]1Cc2cc(OC)c3c(c2[C@H](c2ccc(OC)c(OC)c2)[C@H]1COC)OCO3 [Hypophyllanthin (2), hypophyllanthin]	93 ± 9.69

same assay, conditions: rat, RBL-2H3 cells; RBL-2H3, 5 µg/mL

SMILES	viability at 4 h, 5 µg/mL [%]
O=C(O[C@@H]1O[C@@H]2COC(=O)c3cc(O)c(O)c(O)c3-c3c(cc(O)c(O)c3O)C(=O)O[C@H]([C@H]1O)[C@@H]2O)c1cc(O)c(O)c(O)c1 [Corilagin (4), corilagin]	81.1 ± 14.8
COC[C@@H]1Cc2cc(OC)c3c(c2[C@H](c2ccc(OC)c(OC)c2)[C@H]1COC)OCO3 [Hypophyllanthin (2), hypophyllanthin]	91 ± 10.4

same assay, conditions: rat, RBL-2H3 cells; RBL-2H3, 10 µg/mL

SMILES	viability at 4 h, 10 µg/mL [%]
O=C(O[C@@H]1O[C@@H]2COC(=O)c3cc(O)c(O)c(O)c3-c3c(cc(O)c(O)c3O)C(=O)O[C@H]([C@H]1O)[C@@H]2O)c1cc(O)c(O)c(O)c1 [Corilagin (4), corilagin]	93.7 ± 15.4
COC[C@@H]1Cc2cc(OC)c3c(c2[C@H](c2ccc(OC)c(OC)c2)[C@H]1COC)OCO3 [Hypophyllanthin (2), hypophyllanthin]	114 ± 8.89

same assay, conditions: rat, RBL-2H3 cells; RBL-2H3, 25 µg/mL

SMILES	viability at 4 h, 25 µg/mL [%]
O=C(O[C@@H]1O[C@@H]2COC(=O)c3cc(O)c(O)c(O)c3-c3c(cc(O)c(O)c3O)C(=O)O[C@H]([C@H]1O)[C@@H]2O)c1cc(O)c(O)c(O)c1 [Corilagin (4), corilagin]	103 ± 12.1
COC[C@@H]1Cc2cc(OC)c3c(c2[C@H](c2ccc(OC)c(OC)c2)[C@H]1COC)OCO3 [Hypophyllanthin (2), hypophyllanthin]	62.46 ± 0.56

same assay, conditions: rat, RBL-2H3 cells; RBL-2H3, 50 µg/mL

SMILES	viability at 4 h, 50 µg/mL [%]
O=C(O[C@@H]1O[C@@H]2COC(=O)c3cc(O)c(O)c(O)c3-c3c(cc(O)c(O)c3O)C(=O)O[C@H]([C@H]1O)[C@@H]2O)c1cc(O)c(O)c(O)c1 [Corilagin (4), corilagin]	104 ± 7.35
COC[C@@H]1Cc2cc(OC)c3c(c2[C@H](c2ccc(OC)c(OC)c2)[C@H]1COC)OCO3 [Hypophyllanthin (2), hypophyllanthin]	40.6 ± 4.17

same assay, conditions: rat, RBL-2H3 cells; RBL-2H3, 100 µg/mL

SMILES	viability at 4 h, 100 µg/mL [%]
O=C(O[C@@H]1O[C@@H]2COC(=O)c3cc(O)c(O)c(O)c3-c3c(cc(O)c(O)c3O)C(=O)O[C@H]([C@H]1O)[C@@H]2O)c1cc(O)c(O)c(O)c1 [Corilagin (4), corilagin]	101 ± 7.2
COC[C@@H]1Cc2cc(OC)c3c(c2[C@H](c2ccc(OC)c(OC)c2)[C@H]1COC)OCO3 [Hypophyllanthin (2), hypophyllanthin]	28.1 ± 4.13

system: RBL-2H3 cell line; assay: Cell viability (MTT) assay on RBL-2H3 cells; assay type: cell-based, rat; conditions: RBL-2H3, all concentrations tested
Method: as §1, §2

SMILES	Toxicity towards the cell (in words)
O=C(O[C@@H]1O[C@@H]2COC(=O)c3cc(O)c(O)c(O)c3-c3c(cc(O)c(O)c3O)C(=O)O[C@H]([C@H]1O)[C@@H]2O)c1cc(O)c(O)c(O)c1 [Corilagin (4), corilagin]	not toxic towards the cell

same assay, conditions: RBL-2H3, maintaining approximately 70% cell viability

SMILES	Concentration safe on the cell
COC[C@@H]1Cc2cc(OC)c3c(c2[C@H](c2ccc(OC)c(OC)c2)[C@H]1COC)OCO3 [Hypophyllanthin (2), hypophyllanthin]	below 25 µg/mL

system: beta-hexosaminidase release from RBL-2H3; assay: Inhibitory effect on beta-hexosaminidase release from RBL-2H3 (IgE/DNP-BSA); assay type: cell-based, rat; conditions: not given
Method: The bioassay was conducted as reported by Abd Rani, et al.. In the concentration of 2 × 10^5 cells in 400 µL per well, RBL-2H3 cells were seeded and incubated for 2 h. After 2 h, the cells were sensitized with anti-DNP IgE at a concentration of 0.45 µg/mL in 100 µL per well. The cells were incubated overnight until 80% confluent. The cells were washed with 500 µL Siraganian buffer (119 mM of sodium chloride (NaCl), 5 mM of potassium chloride (KCl), 5.6 mM of glucose, 0.4 mM of magnesium chloride (MgCl2), 1 mM of calcium chloride (CaCl2), 25 mM of piperazine-N,N′-bis(2-ethanesulfonic acid) (PIPES), 40 mM of sodium hydroxide (NaOH), 0.1% BSA; pH 7.2) twice before were added with 160 µL of Siraganian buffer and incubated for 10 min. The cells were then treated with different concentrations of test samples in 20 µL. After 10 min of incubation, allergen, DNP-BSA at a concentration of 10 mg/mL were added to the cells. The cells were incubated for another 30 min. The supernatant (50 µL) was transferred into 96-well plates and was added immediately with 50 µL of the substrate ([…] p-nitrophenyl-N-acetyl-β-D-glucosaminide in 0.1 M citrate buffer, pH 4.5). The cells were further incubated for 1 h and the reaction was stopped using a 200 µL stop solution (0.1 M Na2CO3/NaHCO3, pH 10.0). The absorbance was measured using the microplate reader at 405 nm. The percentage of inhibition was measured using Equation (1). Control cell was assumed to have 100% beta-hexosaminidase release with allergen added without any treatment while the normal cell was assumed to have 0% beta-hexosaminidase release with cell without any allergen and treatment added to the well. The blank well consisted of the test sample. Ketotifen fumarate was used as a positive control. (1) Percentage inhibition % = (1− OD test sample−OD blank−OD normal/OD control−OD normal) × 100

SMILES	Inhibition of beta-hexosaminidase release (in words)
COC[C@@H]1Cc2cc(OC)c3c(c2[C@H](c2ccc(OC)c(OC)c2)[C@H]1COC)OCO3 [Hypophyllanthin (2), hypophyllanthin]	inhibited the release of beta-hexosaminidase

same assay, conditions: Rattus norvegicus, 1.25 µg/mL, mean ± SEM, n = 3, read-out: Inhibitory activity towards beta-hexosaminidase release

SMILES	inhibition at 1.25 µg/mL [%]
COC[C@@H]1Cc2cc(OC)c3c(c2[C@H](c2ccc(OC)c(OC)c2)[C@H]1COC)OCO3 [Hypophyllanthin (2), hypophyllanthin]	23.9 ± 3.31

same assay, conditions: Rattus norvegicus, 2.5 µg/mL, mean ± SEM, n = 3, read-out: Inhibitory activity towards beta-hexosaminidase release

SMILES	inhibition at 2.5 µg/mL [%]
COC[C@@H]1Cc2cc(OC)c3c(c2[C@H](c2ccc(OC)c(OC)c2)[C@H]1COC)OCO3 [Hypophyllanthin (2), hypophyllanthin]	32.3 ± 4.99

same assay, conditions: Rattus norvegicus, 5 µg/mL, mean ± SEM, n = 3, read-out: Inhibitory activity towards beta-hexosaminidase release

SMILES	inhibition at 5 µg/mL [%]
COC[C@@H]1Cc2cc(OC)c3c(c2[C@H](c2ccc(OC)c(OC)c2)[C@H]1COC)OCO3 [Hypophyllanthin (2), hypophyllanthin]	32.3 ± 4.51

same assay, conditions: Rattus norvegicus, 10 µg/mL, mean ± SEM, n = 3, read-out: Inhibitory activity towards beta-hexosaminidase release

SMILES	inhibition at 10 µg/mL [%]
O=C(O[C@@H]1O[C@@H]2COC(=O)c3cc(O)c(O)c(O)c3-c3c(cc(O)c(O)c3O)C(=O)O[C@H]([C@H]1O)[C@@H]2O)c1cc(O)c(O)c(O)c1 [Corilagin (4), corilagin]	2.43 ± 3.26

same assay, conditions: Rattus norvegicus, 25 µg/mL, mean ± SEM, n = 3, read-out: Inhibitory activity towards beta-hexosaminidase release

SMILES	inhibition at 25 µg/mL [%]
O=C(O[C@@H]1O[C@@H]2COC(=O)c3cc(O)c(O)c(O)c3-c3c(cc(O)c(O)c3O)C(=O)O[C@H]([C@H]1O)[C@@H]2O)c1cc(O)c(O)c(O)c1 [Corilagin (4), corilagin]	5.12 ± 2.09

same assay, conditions: Rattus norvegicus, 50 µg/mL, mean ± SEM, n = 3, read-out: Inhibitory activity towards beta-hexosaminidase release

SMILES	inhibition at 50 µg/mL [%]
O=C(O[C@@H]1O[C@@H]2COC(=O)c3cc(O)c(O)c(O)c3-c3c(cc(O)c(O)c3O)C(=O)O[C@H]([C@H]1O)[C@@H]2O)c1cc(O)c(O)c(O)c1 [Corilagin (4), corilagin]	6.68 ± 1.71

system: histamine release from RBL-2H3; assay: Inhibitory effect on histamine release from RBL-2H3 (ELISA); assay type: cell-based; conditions: Rattus norvegicus, 1.25 µg/mL, mean ± SEM, n = 3, read-out: Inhibitory activity towards histamine release
Method: The bioassay was conducted as reported by Shahari, et al. and Abd Rani, et al.. In 24-well plates, 2 × 10^5 of RBL-2H3 cells were seeded in 400 µL per well. The cells were sensitized with 0.45 µg/mL anti-DNP IgE in 100 µL after two hours of incubation. The cells were incubated overnight until reaching 80% confluency. The cells were washed twice with 500 µL of enriched media before being constituted with 320 µL enriched media. After 10 min of incubation, the cells were treated with 40 µL of different concentration of test compounds and was incubated for another 10 min. The cells were treated with 20 µL of allergen, DNP-BSA (10 mg/mL), and further being incubated for another 30 min. The supernatant obtained was transferred into a microcentrifuge tube, and centrifuged for 20 min at 1000× g at 8 °C. The supernatant was transferred to the Histamine ELISA kit and the histamine quantification was conducted based on the ELISA manufacturer protocol given. The percentage of inhibition was measured using Equation (2). The control cell was assumed to have 100% histamine release with allergen added without any treatment while blank well corresponded to 0% cytokine release. Ketotifen fumarate was used as a positive control. (2) Percentage inhibition % = (1− OD test sample−OD blank/OD control−OD blank) × 100

SMILES	inhibition at 1.25 µg/mL [%]
COC[C@@H]1Cc2cc(OC)c3c(c2[C@H](c2ccc(OC)c(OC)c2)[C@H]1COC)OCO3 [Hypophyllanthin (2), hypophyllanthin]	16.4 ± 46.6

same assay, conditions: Rattus norvegicus, 2.5 µg/mL, mean ± SEM, n = 3, read-out: Inhibitory activity towards histamine release

SMILES	inhibition at 2.5 µg/mL [%]
COC[C@@H]1Cc2cc(OC)c3c(c2[C@H](c2ccc(OC)c(OC)c2)[C@H]1COC)OCO3 [Hypophyllanthin (2), hypophyllanthin]	11.9 ± 64.3

same assay, conditions: Rattus norvegicus, 5 µg/mL, mean ± SEM, n = 3, read-out: Inhibitory activity towards histamine release

SMILES	inhibition at 5 µg/mL [%]
COC[C@@H]1Cc2cc(OC)c3c(c2[C@H](c2ccc(OC)c(OC)c2)[C@H]1COC)OCO3 [Hypophyllanthin (2), hypophyllanthin]	71.2 ± 34.7

target: T1, Histamine H1 (human) membrane preparation, in CHO-K1 cells (Homo sapiens, UniProt P35367); assay: Radioligand competition binding assay (3H-mepyramine); conditions: competition radioligand assay
T1 construct: purchased Perkin Elmer (Waltham, MA, USA); host or cells: CHO-K1 cells (recombinant expression, membrane preparation)
T1 sequence (P35367 whole entry): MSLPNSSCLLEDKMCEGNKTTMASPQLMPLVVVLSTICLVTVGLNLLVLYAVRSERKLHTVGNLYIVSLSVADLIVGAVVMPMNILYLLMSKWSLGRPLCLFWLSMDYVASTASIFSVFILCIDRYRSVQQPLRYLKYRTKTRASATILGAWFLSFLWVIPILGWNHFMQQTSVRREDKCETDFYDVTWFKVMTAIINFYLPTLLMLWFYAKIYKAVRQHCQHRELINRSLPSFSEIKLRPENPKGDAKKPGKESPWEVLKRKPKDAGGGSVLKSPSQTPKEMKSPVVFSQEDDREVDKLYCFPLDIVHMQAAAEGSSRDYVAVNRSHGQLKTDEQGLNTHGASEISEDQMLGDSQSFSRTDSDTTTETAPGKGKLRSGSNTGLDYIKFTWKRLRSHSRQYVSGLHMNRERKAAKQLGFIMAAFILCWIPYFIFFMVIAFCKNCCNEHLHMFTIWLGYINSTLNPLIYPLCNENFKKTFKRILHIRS
Method: In determining the affinity of the ligands toward the receptor, competition radioligand binding was conducted. The assay was conducted by measuring the competition binding between a radioligand with a ligand. The concentration of the radioligand with the presence of the ligand and the receptor was determined by using a liquid scintillation counter. […] The Ki value which also known as the binding affinity of the ligand was determined using GraphPad Prism.
Pyrilamine (Mepyramine), [pyridinyl 5-3H], Membrane Target Systems: Histamine H1 (human) membrane preparation, in CHO-K1 cells, liquid scintillation cocktail (ULTIMA GOLD MV), pico pro vial, and glass fiber (GF) filter were obtained from Perkin Elmer (Waltham, MA, USA).
In preparation for bioassay analysis, 10 mg of test samples were dissolved in 1 mL of DMSO and were treated as the stock sample. […] The working test sample together with its stock sample were kept in 4 °C until further used.
The radioligand assay was conducted as reported by Strakhova and Esbenshade. […] The mixture was immediately added with 200 µL of histamine receptor membrane (5 µg protein/well). The mixture was incubated for an hour at room temperature while shaking on the shaker. After an hour incubation, the mixture was harvested on GF/B uni filter presoaked with 0.5% PEI for 3 min. The GF/B uni filter was rinsed a few times with a wash buffer before being dried for one and a half hours. Once the uni filter was dry, the punched filter was transferred to 4 mL pico pro vial and was soaked with 2 mL of liquid scintillation cocktail. The solution was vortexed for a few seconds before being quantified using the liquid scintillator. Ki value (nmol/L) was obtained by using Equation (3).

SMILES	Affinity towards the H1 receptor (in words)
O=C(O[C@@H]1O[C@@H]2COC(=O)c3cc(O)c(O)c(O)c3-c3c(cc(O)c(O)c3O)C(=O)O[C@H]([C@H]1O)[C@@H]2O)c1cc(O)c(O)c(O)c1 [Corilagin (4), corilagin]	did not show any affinity towards the receptor

same assay, conditions: pH 7.4, 1 h incubation, 3H-mepyramine

Radioassay (Ki)	SMILES
Not converged	O=C(O[C@@H]1O[C@@H]2COC(=O)c3cc(O)c(O)c(O)c3-c3c(cc(O)c(O)c3O)C(=O)O[C@H]([C@H]1O)[C@@H]2O)c1cc(O)c(O)c(O)c1 [Corilagin (4), corilagin]

same assay, conditions: pH 7.4, 1 h incubation, 3H-mepyramine; read-out: Radioassay (Ki)

Ki [pM]	SMILES
40	COC[C@@H]1Cc2cc(OC)c3c(c2[C@H](c2ccc(OC)c(OC)c2)[C@H]1COC)OCO3 [Hypophyllanthin (2), hypophyllanthin]
